Results from patent EP4603105A1, “PHARMACEUTICAL COMPOSITION CONTAINING CYCLIC COMPOUND HAVING SELECTIVE KRAS INHIBITORY EFFECT AGAINST HRAS AND NRAS” (CHUGAI SEIYAKU KABUSHIKI KAISHA, priority 2022, dated 2024).
Like-named read-outs stand apart in the source and are kept apart here.

Legend:
[1] = system: human lung cancer strain NCI-H441; assay: NCI-H441 cell proliferation inhibitory activity (CellTiter-Glo, 4 days); type: cell-based; conditions: read-out: NCl-H441 IC50
Procedure: A test compound was dispensed into a U-bottom 384-well plate as 40 nL serially diluted dimethyl sulfoxide solutions using a liquid handler Echo (LABCYTE). […] This cell suspension was dispensed in an amount of 40 µL per well into a plate containing the test compound, and cultured at 37°C in a 5% carbon dioxide gas incubator. Four days later, 20 µL of CellTiter-Glo (registered trademark) (Promega) was added to each well and […] was measured. […]

[2] = biological target: GDP-bound KRAS wild-type protein (Homo sapiens, UniProt P01116); assay: Binding to KRAS by surface plasmon resonance (SPR), dissociation constant KD; conditions: 1:1 binding model
Sequence of GDP-bound KRAS wild-type protein (P01116 1-188 isoform P01116-2): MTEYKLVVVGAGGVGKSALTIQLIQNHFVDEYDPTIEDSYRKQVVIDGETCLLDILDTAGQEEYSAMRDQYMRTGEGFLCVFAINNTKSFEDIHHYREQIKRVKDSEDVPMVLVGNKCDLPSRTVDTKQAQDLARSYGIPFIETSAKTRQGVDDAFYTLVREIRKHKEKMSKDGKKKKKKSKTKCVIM
Procedure, shortened: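 Measured at 30°C: SPR with GDP-loaded, E. coli-expressed biotin-Avi RAS captured (~100–300 RU), ascending 75 s compound injections, HBS pH 7.4 with GDP, MgCl2, 4% DMSO. KD from 1:1 fit.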

HRAS wild-type protein = HRAS wild-type protein (Homo sapiens, UniProt P01112); assay: Binding to HRAS by surface plasmon resonance (SPR), KD and KD ratio to KRAS
Sequence of HRAS wild-type protein (P01112 whole entry): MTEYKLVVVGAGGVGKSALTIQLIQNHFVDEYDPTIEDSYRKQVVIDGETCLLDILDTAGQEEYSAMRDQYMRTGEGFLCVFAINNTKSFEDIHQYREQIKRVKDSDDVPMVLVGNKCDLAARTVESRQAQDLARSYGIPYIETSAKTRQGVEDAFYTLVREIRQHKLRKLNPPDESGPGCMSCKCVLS
Procedure, shortened: (§1)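 SPR, 30°C: Avi-biotin RAS·GDP captured via Biotin CAPture (~100–300 RU); running buffer HBS pH 7.4, 1 mM DTT, 10 mM MgCl2, 0.01% Tween 20, 10 µM GDP, 4% DMSO. Single-cycle kinetics, 100 µL/min, 75 s injections; 1:1 model → KD.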

[3] = system: human lung cancer strain NCI-H441; type: cell-based
Procedure, shortened: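 Proliferation was scored by […] measured after the reagent was added to cultures kept at 37°C in 5% carbon dioxide.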

[4] = biological target: GDP-bound NRAS wild-type protein (Homo sapiens, UniProt P01111); assay: Binding to NRAS by surface plasmon resonance (SPR), KD and KD ratio to KRAS
Sequence of GDP-bound NRAS wild-type protein (P01111 whole entry): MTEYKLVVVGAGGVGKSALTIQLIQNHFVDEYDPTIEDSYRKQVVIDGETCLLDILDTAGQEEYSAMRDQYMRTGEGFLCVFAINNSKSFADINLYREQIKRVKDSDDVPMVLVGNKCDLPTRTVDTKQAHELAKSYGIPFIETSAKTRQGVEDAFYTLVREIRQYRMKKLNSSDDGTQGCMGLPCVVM
Procedure, shortened: as §1

[5] = 50% proliferation inhibitory concentration, four days
[6] = ratio of KD for HRAS wild-type protein to KD for KRAS
[7] = ratio of KD for GDP-bound NRAS wild-type protein to KD for KRAS
[8] = ratio of the KD value with respect to HRAS wild-type protein to the KD value with respect to KRAS
[9] = ratio of the KD value with respect to GDP-bound NRAS wild-type protein to the KD value with respect to KRAS

## CCO[C@@H]1C[C@H]2C(=O)NC3(CC(C)(C)C3)C(=O)N(C)[C@@H](C3CCCC3)C(=O)N(C)[C@H](C(=O)N(C)CC)CC(=O)N(C)[C@@H]([C@H](C)OC)C(=O)N[C@@H]([C@@H](C)CC)C(=O)N(C)CC(=O)N(C)[C@H]3C/C=C\CCN(C3=O)[C@@H](Cc3ccc(C(F)(F)F)cc3)C(=O)N(C)CC(=O)N[C@@H](CCc3ccc(C(F)(F)F)c(OC)c3)C(=O)N2C1 [PP3216]
[1]; NCI-H441 cells, 4 days
  IC50: 22.1 nM

## CCO[C@@H]1C[C@H]2C(=O)NC3(CCC3)C(=O)N(C)[C@@H](C3CCCC3)C(=O)N(C)[C@H](C(=O)N3CCOCC3)CC(=O)N(C)[C@@H](CC)C(=O)N[C@@H]([C@@H](C)CC)C(=O)N(C)CC(=O)N(C)[C@H]3C/C=C\CCN(C3=O)[C@@H](Cc3ccc(C(F)(F)F)cc3)C(=O)N(C)CC(=O)N[C@@H](CCc3ccc(C(F)(F)F)c(Cl)c3)C(=O)N2C1 [PP1281]
[1]; [5]
  IC50: 10.2 nM

## CCC[C@H]1C(=O)N[C@@H]([C@@H](C)CC)C(=O)N(C)CC(=O)N(C)[C@H]2C/C=C\CCN(C2=O)[C@@H](Cc2ccc(C(F)(F)F)cc2)C(=O)N(C)CC(=O)N[C@@H](CCc2cc(F)c(C(F)(F)F)c(F)c2)C(=O)N2C[C@H](OCC)C[C@H]2C(=O)NC2(CCC2)C(=O)N(C)[C@@H](C2CCCC2)C(=O)N(C)[C@H](C(=O)N2CCCC2)CC(=O)N1C [PP1299]
[1]; [5]
  IC50: 11 nM

## CCO[C@@H]1C[C@H]2C(=O)NC3(CCC3)C(=O)N(C)[C@@H](C3CCCC3)C(=O)N(C)[C@H](C(=O)N3CCCC3)CC(=O)N(C)[C@@H](CC3CCC3)C(=O)N[C@@H]([C@@H](C)CC)C(=O)N(C)CC(=O)N(C)[C@H]3C/C=C\CCN(C3=O)[C@@H](Cc3ccc(C(F)(F)F)cc3)C(=O)N(C)CC(=O)N[C@@H](CCc3cc(F)c(C(F)(F)F)c(F)c3)C(=O)N2C1 [PP1423]
[1]; [5]
  IC50: 4.4 nM

## CCO[C@@H]1C[C@H]2C(=O)NC3(CC(C)(C)C3)C(=O)N(C)[C@@H](C3CCCC3)C(=O)N(C)[C@H](C(=O)N(C)CC)CC(=O)N(C)[C@@H]([C@H](C)OC)C(=O)N[C@@H]([C@@H](C)CC)C(=O)N(C)CC(=O)N(C)[C@H]3C/C=C\CCN(C3=O)[C@@H](Cc3ccc(C)cc3)C(=O)N(C)CC(=O)N[C@@H](CCc3ccc(C(F)(F)F)c(OC)c3)C(=O)N2C1 [PP3225]
[1]; NCI-H441 cells, 4 days
  IC50: 12.1 nM

## CCCC[C@H]1C(=O)N[C@@H]([C@@H](C)CC)C(=O)N(C)CC(=O)N(C)[C@H]2C/C=C\CCN(C2=O)[C@@H](Cc2ccc(C(F)(F)F)cc2)C(=O)N(C)CC(=O)N[C@@H](CCc2cc(F)c(C(F)(F)F)c(F)c2)C(=O)N2C[C@H](OCC)C[C@H]2C(=O)NC2(CCC2)C(=O)N(C)[C@@H](C2CCCC2)C(=O)N(C)[C@H](C(=O)N2CCCC2)CC(=O)N1C [PP1396]
[1]; [5]
  IC50: 19.4 nM

## CCO[C@@H]1C[C@H]2C(=O)NC3(CC(C)(C)C3)C(=O)N(C)[C@@H](C3CCCC3)C(=O)N(C)[C@H](C(=O)N(C)CC)CC(=O)N(C)[C@@H]([C@H](C)OC)C(=O)N[C@@H]([C@@H](C)CC)C(=O)N(C)CC(=O)N(C)[C@H]3C/C=C\CCN(C3=O)[C@@H](Cc3ccc(C(F)(F)F)cc3)C(=O)N(C)CC(=O)N[C@@H](CCc3ccc(C(F)(F)F)c(Cl)c3)C(=O)N2C1 [PP3218]
[1]; NCI-H441 cells, 4 days
  IC50: 15.1 nM

## CCO[C@@H]1C[C@H]2C(=O)NC3(CCC3)C(=O)N(C)[C@@H](C3CCCC3)C(=O)N(C)[C@H](C(=O)N(C)C)CC(=O)N(C)[C@@H](CC)C(=O)N[C@@H]([C@@H](C)CC)C(=O)N(C)CC(=O)N(C)[C@H]3C/C=C\CCN(C3=O)[C@@H](CC3CCCCC3)C(=O)N(C)CC(=O)N[C@@H](CCc3cc(F)c(C(F)(F)F)c(F)c3)C(=O)N2C1 [PP1466]
[1]; [5]
  IC50: 33.2 nM

## CCC[C@H]1C(=O)N[C@@H]([C@@H](C)CC)C(=O)N(C)CC(=O)N(C)[C@H]2C/C=C\CCN(C2=O)[C@@H](CC2CCC(F)(F)CC2)C(=O)N(C)CC(=O)N[C@@H](CCc2cc(F)c(C(F)(F)F)c(F)c2)C(=O)N2C[C@H](OCC)C[C@H]2C(=O)NC2(CCC2)C(=O)N(C)[C@@H](C2CCCC2)C(=O)N(C)[C@H](C(=O)N(C)C)CC(=O)N1C [PP1450]
[1]; [5]
  IC50: 50.1 nM

## CCO[C@@H]1C[C@H]2C(=O)NC3(CCC3)C(=O)N(C)[C@@H](C3CCCC3)C(=O)N(C)[C@H](C(=O)N(C)C)CC(=O)N(C)[C@@H](CC3CCCC3)C(=O)N[C@@H]([C@@H](C)CC)C(=O)N(C)CC(=O)N(C)[C@H]3C/C=C\CCN(C3=O)[C@@H](CC3CCCCC3)C(=O)N(C)CC(=O)N[C@@H](CCc3cc(F)c(C(F)(F)F)c(F)c3)C(=O)N2C1 [PP1472]
[1]; [5]
  IC50: 37.1 nM

## CCO[C@@H]1C[C@H]2C(=O)NC3(COC3)C(=O)N(C)[C@@H](C3CCCC3)C(=O)N(C)[C@H](C(=O)N(C)C)CC(=O)N(C)[C@@H](CC)C(=O)N[C@@H]([C@@H](C)CC)C(=O)N(C)CC(=O)N(C)[C@H]3C/C=C\CCN(C3=O)[C@@H](Cc3ccc(C(F)(F)F)cc3)C(=O)N(C)CC(=O)N[C@@H](CCc3cc(F)c(C(F)(F)F)c(F)c3)C(=O)N2C1 [PP1278]
[1]; [5]
  IC50: 45.7 nM

## CCO[C@@H]1C[C@H]2C(=O)N(C)C3(CC(C)(C)C3)C(=O)N(C)[C@@H](C3CCCC3)C(=O)N(C)[C@H](C(=O)N(C)C)CC(=O)N(C)[C@H]3CCCCCc4ccc(cc4)C[C@@H](C(=O)N(C)CC(=O)N[C@@H](CCc4ccc(C(F)(F)F)c(OC)c4)C(=O)N2C1)N1CC/C=C\C[C@@H](C1=O)N(C)C(=O)CN(C)C(=O)[C@H]([C@@H](C)CC)NC3=O [PP3091]
[2]
  Kd: 0.031 nM
HRAS wild-type protein; [6]
  HRAS /KRAS: B (a compound having 3 or more and less than 10 is denoted as B)
[3]
  IC50: 1.2 nM
[4]; [7]
  NRAS /KRAS: A (a compound having 10 or more and less than 20 is denoted as A)

## CC[C@H](C)[C@@H]1NC(=O)[C@H](COC)N(C)C(=O)C[C@@H](C(=O)N(C)CC)N(C)C(=O)[C@H](C2CCCC2)N(C)C(=O)C2(CC(C)(C)C2)NC(=O)[C@@H]2CC(F)(F)CN2C(=O)[C@H](CCc2ccc(C(F)(F)F)c(OC)c2)NC(=O)CN(C)C(=O)[C@H](Cc2ccc(C(F)(F)F)cc2)N2CC/C=C\C[C@@H](C2=O)N(C)C(=O)[C@@H]2CCN2C1=O [PP3136]
[2]
  Kd: 0.63 nM
HRAS wild-type protein; [6]
  HRAS /KRAS: B (a compound having 3 or more and less than 10 is denoted as B)
[3]
  IC50: 47 nM
[4]; [7]
  NRAS /KRAS: B (a compound having 3 or more and less than 10 is denoted as B)

## CCC[C@H]1C(=O)N[C@@H]([C@@H](C)CC)C(=O)N(C2CC2)CC(=O)N(C)[C@H]2C/C=C\CCN(C2=O)[C@@H](Cc2ccc(C)cc2)C(=O)N(C)CC(=O)N[C@@H](CCc2ccc(Cl)c(Cl)c2)C(=O)N2C[C@H](OCC)C[C@H]2C(=O)NC2(CC(C)(C)C2)C(=O)N(C)[C@@H](CC2CC2)C(=O)N(C)[C@H](C(=O)N(C)C)CC(=O)N1C [PP2805]
[2]
  Kd: 3.7 nM
HRAS wild-type protein; [6]
  HRAS /KRAS: A (a compound having 10 or more and less than 20 is denoted as A)
[3]
  IC50: 83 nM
[4]; [7]
  NRAS /KRAS: A (a compound having 10 or more and less than 20 is denoted as A)

## CCO[C@@H]1C[C@H]2C(=O)NC3(CCC3)C(=O)N(C)[C@@H](C3CCCC3)C(=O)N(C)[C@H](C(=O)N(C)C)CC(=O)N(C)[C@@H](CC3CCCCC3)C(=O)N[C@@H]([C@@H](C)CC)C(=O)N(C)CC(=O)N(C)[C@H]3CCCCCN(C3=O)[C@@H](Cc3ccc(C(F)(F)F)cc3)C(=O)N(C)CC(=O)N[C@@H](CCc3cc(F)c(C(F)(F)F)c(F)c3)C(=O)N2C1 [PP0671]
[2]; Single Cycle Kinetics
  Kd: 0.67 nM
HRAS wild-type protein; [8]
  HRAS /KRAS: B (a compound having 3 or more and less than 10 is denoted as B)
[3]
  IC50: 32.5 nM
[4]; [9]
  NRAS /KRAS: B (a compound having 3 or more and less than 10 is denoted as B)

## CCCN(C)C(=O)[C@@H]1CC(=O)N(C)[C@@H](CC(F)F)C(=O)N[C@@H]([C@@H](C)CC)C(=O)N(C)CC(=O)N(C)[C@H]2C/C=C\CCN(C2=O)[C@@H](Cc2ccc(C(F)(F)F)cc2)C(=O)N(C)CC(=O)N[C@@H](CCc2ccc(C(F)(F)F)c(OC)c2)C(=O)N2C[C@@H](C)C[C@H]2C(=O)NC2(CCC2)C(=O)N(C)[C@@H](C2CCCC2)C(=O)N1C [PP2024]
[2]; Single Cycle Kinetics
  Kd: 0.082 nM
HRAS wild-type protein; [8]
  HRAS /KRAS: B (a compound having 3 or more and less than 10 is denoted as B)
[3]
  IC50: 10.1 nM
[4]; [9]
  NRAS /KRAS: A (a compound having 10 or more and less than 20 is denoted as A)

## CCO[C@@H]1C[C@H]2C(=O)NC3(CCC3)C(=O)N(C)[C@@H](C3CCCC3)C(=O)N(C)[C@H](C(=O)N(C)C)CC(=O)N(C)[C@@H](CC3CCCC3)C(=O)N[C@@H]([C@@H](C)CC)C(=O)N(C)CC(=O)N(C)[C@H]3CCCCN(C3=O)[C@@H](Cc3ccc(C(F)(F)F)cc3)C(=O)N(C)CC(=O)N[C@@H](CCc3cc(F)c(C(F)(F)F)c(F)c3)C(=O)N2C1 [PP0700]
[2]; Single Cycle Kinetics
  Kd: 0.013 nM
HRAS wild-type protein; [8]
  HRAS /KRAS: B (a compound having 3 or more and less than 10 is denoted as B)
[3]
  IC50: 2.9 nM
[4]; [9]
  NRAS /KRAS: C (A compound having a KD ratio of 0.1 or more and less than 3 is denoted as C)
